According to article PMC12691742, “Anti-Cancer Outcome of Glucocorticoid Receptor Transrepression by Synephrine Derivatives in Hematological Malignancies” (International Journal of Molecular Sciences, 2025):
Read-outs that look alike come from different tables or passages of the source.

Assays:
K562 cells = experiment: Cell cycle analysis by PI flow cytometry in K562 cells; format: cell-based; conditions: 24 h, 10S-E2 6.25 µM
Experimental: (§1) Figure 5 Pro-apoptotic and anti-cancer effects of synephrine derivatives in vitro and in vivo. (A) Effect of 4S-C2, 8S-E3, 10S-E2, and 13S-G2 on cell cycle progression in K562 and Granta cells after 24 h of incubation. The cells were fixed with ethanol, stained with propidium iodide, and analyzed using flow cytometry. Statistically significant difference compared to control: *—p < 0.05, **—p < 0.01 (n = 3). (B) In vivo anti-cancer activity was evaluated using the transplantable P388 murine lymphoma model. […] Tumor nodule size was measured twice a week using digital calipers. Statistically significant differences compared to the control: * p < 0.05, ** p < 0.01.
(§2) The distribution of cells by cell cycle phases was evaluated using propidium iodide (PI) staining, as described in [19]. […] After incubation, the cells were resuspended in 70% ethanol and fixed for 2h at 4 °C. Cells were then washed twice with cold PBS, pH 7.4, and stained with 500 µL of cold propidium iodide (PI) solution (50 µg/mL PI, 1% Triton X-100, and 100 µg/mL RNase A in PBS). The cell cycle distribution of cells in samples was analyzed using an FACSCalibur Flow Cytometer (“BD Biosciences”, San Jose, CA, USA). The experiments were performed in triplicate.

[1] = system: leukemia and lymphoma cells (Granta, K562); set-up: method as in PMID 39858397; conditions: cited from earlier work
[2] = system: Rankl, Mmp9, Tsc2, Trap, Bglap mRNA expression in bone tissue; experiment: Glucocorticoid-induced osteoporosis model: Q-PCR of marker genes in bone tissue; format: in vivo, mice; conditions: 5 weeks; Dex 20 mg/kg, 10S-E2 10 mg/kg
Experimental: (A) H&E bone staining and quantification of cortical bone thickness. (B) Q-PCR analysis of Rankl, Mmp9, Tsc2, Trap, and Bglap mRNA expression in bone tissue. […] (C) H&E skin staining and quantification of dermal adipose thickness (50 images per treatment group of 10 animals). Statistically significant differences compared to the control: * p < 0.05, ** p < 0.01.
Total RNA isolation from cell cultures and murine bones, reverse transcription, and Q-PCR were performed as described in [36]. […] Results were normalized to the expression of the housekeeping RPL27 и Rpl27 genes. The experiments were performed in triplicate.
The protocol for the experiment was approved by the local N.N. Blokhin National Medical Research Center Ethics Committee and corresponded to the guidelines for the welfare and use of animals in cancer research adopted by The United Kingdom Coordinating Committee on Cancer Prevention Research. […] Body weight was recorded twice a week for toxicity control.

[3] = system: primary lymphoblasts from pediatric patients with acute lymphoblastic leukemia; experiment: Resazurin cytotoxicity assay in primary lymphoblasts; format: cell-based; conditions: Homo sapiens
Source text: Peripheral blood samples were collected from 1–10-year-old pediatric patients with newly diagnosed ALL in the acute phase of the disease or from adult healthy volunteers at N.N. Blokhin National Research Center of Oncology. The Ethical Committee of the N.N. Blokhin National Research Center of Oncology approved this study, and written informed consents were provided. […] were isolated by centrifugation with Ficoll-Isopaque (“Paneco”, Russia) and then cultured in the RPMI-1640 media (“Paneco”, Russia) supplemented with 20% FBS (“Biowest”, France), 2 mM L-glutamine, 0.5 ME/mL penicillin and 0.5 µg/mL streptomycin (“Paneco”, Russia) and 10 mg/L phytohaemagglutinin (“Paneco”, Moscow, Russia).
Isolated PBMCs were seeded into 96-well plates (2 × 10^6 cells/well) and treated with 10S-E2 at a wide range of concentrations (2–200 µM). Cell viability was analyzed after 24 h of incubation, assessing metabolic activity with the addition of 0.177 mg/mL of resazurin at 8–10 h before the end of the incubation. Fluorescence intensity was evaluated using a Fluoroskan FL microplate fluorimeter (“Thermo Scientific”, Waltham, MA, USA). The IC50 values were determined using GraphPad Prism (Ver.7.0) software. The experiments were performed in triplicate.

Granta cells = experiment: Cell cycle analysis by PI flow cytometry in Granta cells; format: cell-based; conditions: 24 h, 10S-E2 6.25 µM
Experimental: as §1, §2

With `CCCCCCNCC(O)c1ccc(OCc2ccccc2)cc1` (stereo not drawn) [10S-E2, 1-[4-(benzyloxy)phenyl]-2-(hexylamino)ethanol] the induction of apoptosis (K562 cells) was “did not induce apoptosis”, the “number of cells in the G1 phase” value (K562 cells) was “decrease in the number of cells in the G1 phase” and the “number of replicating cells in the S phase” value (K562 cells) was “increased the number of replicating cells in the S phase”. For the same compound, the IC50 ([1]; leukemia and lymphoma cells, read-out: cell viability IC50) was 13 to 26 µM, the “concentrations of cytotoxic effects” value ([1]; mantle cell lymphoma Granta and chronic myeloleukemia K562 cells) was 10 to 20 µM and the “Mmp9 mRNA expression in bone tissue” value [2] was “significantly downregulated”. The “Rankl mRNA expression in bone tissue” value [2] was “significantly downregulated”, the “Trap mRNA expression in bone tissue” value [2] was “significantly downregulated” and the “Tsc2 mRNA expression in bone tissue” value [2] was “significantly downregulated”. For the same compound, the IC50 ([3]; 24 h, patient code 3, 24 h, read-out: IC50 of cytotoxic effect) was 40.9 ± 3.12 µM, the IC50 ([3]; 24 h, patient code 4, 24 h, read-out: IC50 of cytotoxic effect) was 43.2 ± 9.48 µM and the IC50 ([3]; 24 h, patient code 7, 24 h, read-out: IC50 of cytotoxic effect) was 43 ± 0.71 µM. It also gave an IC50 ([3]; 24 h, patient code 8, 24 h, read-out: IC50 of cytotoxic effect) of 60.6 ± 0.97 µM, an IC50 ([3]; 24 h, patient code 10, 24 h, read-out: IC50 of cytotoxic effect) of 71.3 ± 5.59 µM and an IC50 ([3]; 24 h, patient code 12, 24 h, read-out: IC50 of cytotoxic effect) of 75.7 ± 4.63 µM. It also gave an IC50 ([3]; 24 h, patient code 20, 24 h, read-out: IC50 of cytotoxic effect) of 64.2 ± 0.55 µM, an IC50 ([3]; 24 h, patient code 21, 24 h, read-out: IC50 of cytotoxic effect) of 49.4 ± 1.95 µM and an IC50 ([3]; 24 h, patient code 23, 24 h, read-out: IC50 of cytotoxic effect) of 55.2 ± 2.25 µM. For the same compound, the IC50 ([3]; 24 h, patient code 24, 24 h, read-out: IC50 of cytotoxic effect) was 70.3 ± 2.54 µM, the IC50 ([3]; 24 h, patient code 25, 24 h, read-out: IC50 of cytotoxic effect) was 80.3 ± 4.09 µM and the IC50 ([3]; 24 h, patient code 30, 24 h, read-out: IC50 of cytotoxic effect) was 52.4 ± 0.07 µM. For the same compound, the IC50 ([3]; 24 h, patient code 31, 24 h, read-out: IC50 of cytotoxic effect) was 63.2 ± 1.42 µM, the IC50 ([3]; 24 h, patient code 33, 24 h, read-out: IC50 of cytotoxic effect) was 67.6 ± 4.02 µM and the IC50 ([3]; 24 h, patient code 34, 24 h, read-out: IC50 of cytotoxic effect) was 55 ± 1.91 µM. It also gave an IC50 ([3]; 24 h, patient code 35, 24 h, read-out: IC50 of cytotoxic effect) of 65.9 ± 0.27 µM, an IC50 ([3]; 24 h, patient code 37, 24 h, read-out: IC50 of cytotoxic effect) of 69.8 ± 3.66 µM and an IC50 ([3]; 24 h, patient code 39, 24 h, read-out: IC50 of cytotoxic effect) of 71.3 ± 2.59 µM. For the same compound, the IC50 ([3]; 24 h, patient code 46, 24 h, read-out: IC50 of cytotoxic effect) was 71.5 ± 2.08 µM, the IC50 ([3]; primary lymphoblast samples from 19 patients diagnosed with ALL, read-out: IC50 of cytotoxic effect, range over samples) was 40 to 70 µM and the “number of cells in the G1 phase” value (Granta cells) was “decrease in the number of cells in the G1 phase”.
